Experimental data as given in US20240424083A1 (priority 2023, published 2024).
Peptide text beside a SMILES is read from it. * marks the point of attachment. Cbz = O=C(OCc1ccccc1)*; CH2F = FC*

Columns and labels:
Format in all cases: cell-based, mouse
[1] = system: BMDMs
[2] = system: 2′5′-OAS/RNaseL system; details: N15m1-infected BMDMs, 18 hpi; zVAD 20 μM, C16 1 μM
Description: Bioanalyzer RNA analysis. Equal amounts of total RNA purified from BMDMs were analyzed on an Agilent 2100 Bioanalyzer using RNA Nano LabChips.

[3] = system: BMDMs; details: N15m1-infected BMDMs, 24 hpi; zVAD 20 μM, Nec-1 25 μM, VX-765 20 μM
Description: Cell death assays. Cell viability and Caspase 3/7 activity were measured using CellTiter Glo (G7571, Promega) or CaspaseGlo 3/7 (G8091, Promega) respectively, according to the manufacturer's protocol, with modification.
Cell death assays. Cell viability and Caspase 3/7 activity were measured using CellTiter Glo (G7571, Promega) or CaspaseGlo 3/7 (G8091, Promega) respectively, according to the manufacturer's protocol, with modification. Briefly, 3.0×10^5 BMDMs/well wereplated in 24-well plates and infected at an MOI of 0.1 for 1 h in serum-free media. Media was replaced with complete media, or for addition of chemical inhibitors, viral inoculum was replaced with completed BMM media containing indicated concentration of inhibitors. Infected BMDMs were incubated for 24 h at 37° C./5% CO2. BMDMs were washed twice with 1×PBS and lysed with 100 μL Glo reagent/medium mixture (1:1). 50 μL of cell lysate was used for measuring the luminescence signal. Standard deviation and unpaired t test were performed on technical triplicates and data are representative of three independent experiments.

COC(=O)C[C@H](NC(=O)[C@H](C)NC(=O)[C@@H](NC(=O)OCc1ccccc1)C(C)C)C(=O)CF [zVAD] (Cbz-Val-Ala-Asp(OMe)-CH2F)
effect of inhibitor on caspase 3/7 activity in N15m1-infected BMDMs [1]: inhibited
effect of inhibitor on degradation of host rRNA [2]: not inhibited
effect of inhibitor on virus-induced cell death [3]: prevented virus-induced cell death
